Values joined by “and” are separate entries in the source; they are usually repeats but may differ in a detail not shown here. Equal values may be shown once. Where a name gives a salt, the structure may show the parent alone.
Key:
[1] = tested on: β-lactamase producing bacteria; assay: Test Example 3: MIC of meropenem (MEPM) combined with test compound at fixed 4 μg/mL, broth microdilution, ratio to MEPM alone; assay type: cell-based; conditions: for MIC of MEPM in combination with a test compound: test compound at fixed 4 μg/mL, numerator of the cell; for MIC of MEPM alone: no test compound, denominator of the cell, comparator for the example, in µg/mL
Method: Test Example 3: Evaluation of Minimum Inhibitory Concentration (MIC) of MEPM Against β-Lactamase Producing Bacteria
To evaluate the β-lactamase inhibitory activity of test compounds, the effect of combination of a test compound and a β-lactam agent against β-lactamase producing bacteria was evaluated. Meropenem (MEPM) was used as a β-lactam antimicrobial agent. The minimum inhibitory concentration (MIC) of MEPM against β-lactamase producing bacteria when a test compound was added at a fixed concentration (4 μg/mL) was measured by broth microdilution method (common ratio: 2).

[2] = tested on: β-lactamase producing bacteria; assay: Test Example 1: MIC of meropenem (MEPM) combined with test compound at fixed 4 μg/mL, broth microdilution; assay type: cell-based; conditions: relative to MEPM alone
Method: Test Example 1: Evaluation of Minimum Inhibitory Concentration (MIC) of MEPM Against β-Lactamase Producing Bacteria
To evaluate the β-lactamase inhibitory activity of test compounds, the effect of combination of a test compound and a β-lactam agent against β-lactamase producing bacteria was evaluated. Meropenem (MEPM) was used as a β-lactam antimicrobial agent. The minimum inhibitory concentration (MIC) of MEPM against β-lactamase producing bacteria when a test compound was added at a fixed concentration (4 μg/mL) was measured by broth microdilution method (common ratio: 2). MIC of MEPM decreasing to less than 1/32 in combination with a test compound is indicated by A, decreasing from 1/32 to 1/16 is indicated by B, decreasing from ⅛ to ¼ is indicated by C, and decreasing to ½ or others are indicated by D. “-” represents untested cases.

[3] = K. pneumoniae ATCC BAA-2344 (KPC)
[4] = K. pneumoniae ATCC BAA-2524 (OXA-48)

Compound | Decrease of MIC of MEPM in combination with a test compound, K. pneumoniae ATCC BAA-2344 (KPC) [2] | Decrease of MIC of MEPM in combination with a test compound, K. pneumoniae ATCC BAA-2524 (OXA-48) [2] | other results
4,4-dihydroxy-8-({1-[3-(pyrrolidin-2-yl)propanoyl]azetidin-3-yl}oxy)-5-oxa-4-boranuidabicyclo[4.4.0]deca-l(6),7,9-triene-7-carboxylic acid disodium salt [Example 118] |  |  | MIC of MEPM in combination with a test compound [1, 3]: ≤ 0.063 µg/mL; MIC of MEPM in combination with a test compound [1, 4]: ≤ 0.063 µg/mL
CC(C)[C@@H](N)C(=O)N1CC(Oc2ccc3c(c2C(=O)O)O[B-](O)(O)CC3)C1 [Example 28, 4,4-dihydroxy-8-[(1-D-valylazetidin-3-yl)oxy]-5-oxa-4-boranuidabicyclo[4.4.0]deca-l(6),7,9-triene-7-carboxylic acid disodium salt] | A (MIC of MEPM decreasing to less than 1/32 in combination with a test compound is indicated by A) | B (decreasing from 1/32 to 1/16 is indicated by B) | Decrease of MIC of MEPM in combination with a test compound, E. coli ATCC BAA-2340 (KPC) [2]: A (MIC of MEPM decreasing to less than 1/32 in combination with a test compound is indicated by A)
N[C@@H](Cc1cnc[nH]1)C(=O)N1CC(Oc2ccc3c(c2C(=O)O)O[B-](O)(O)CC3)C1 [Example 29, 8-[(1-L-histidylazetidin-3-yl)oxy]-4,4-dihydroxy-5-oxa-4-boranuidabicyclo[4.4.0]deca-l(6),7,9-triene-7-carboxylic acid disodium salt] | A (MIC of MEPM decreasing to less than 1/32 in combination with a test compound is indicated by A) | B (decreasing from 1/32 to 1/16 is indicated by B) | 
CCN1CCN(C(=O)N[C@@H](C(=O)N2CC(Oc3ccc4c(c3C(=O)O)O[B-](O)(O)CC4)C2)c2ccccc2)C(=O)C1=O [Example 30, 8-[(1-{(2R)-2-[(4-ethyl-2,3-dioxopiperazine-1-carbonyl)amino]-2-phenylacetyl}azetidin-3-yl)oxy]-4,4-dihydroxy-5-oxa-4-boranuidabicyclo[4.4.0]deca-l(6),7,9-triene-7-carboxylic acid disodium salt] | A (MIC of MEPM decreasing to less than 1/32 in combination with a test compound is indicated by A) | B (decreasing from 1/32 to 1/16 is indicated by B) | 
O=C(O)c1c(OC2CN(C(=O)[C@H]3CCCN3)C2)ccc2c1O[B-](O)(O)CC2 [Example 31, 4,4-dihydroxy-8-[(1-D-prolylazetidin-3-yl)oxy]-5-oxa-4-boranuidabicyclo[4.4.0]deca-l(6),7,9-triene-7-carboxylic acid disodium salt] | A (MIC of MEPM decreasing to less than 1/32 in combination with a test compound is indicated by A) | B (decreasing from 1/32 to 1/16 is indicated by B) | 
O=C(O)c1c(OC2CN(C(=O)[C@@H]3CCCN3)C2)ccc2c1O[B-](O)(O)CC2 [Example 32, 4,4-dihydroxy-8-[(1-L-prolylazetidin-3-yl)oxy]-5-oxa-4-boranuidabicyclo[4.4.0]deca-l(6),7,9-triene-7-carboxylic acid disodium salt] | A (MIC of MEPM decreasing to less than 1/32 in combination with a test compound is indicated by A) | B (decreasing from 1/32 to 1/16 is indicated by B) | 
NCCc1cn(CC(=O)N2CC(Oc3ccc4c(c3C(=O)O)O[B-](O)(O)CC4)C2)cn1 [Example 33, 8-[(1-{[4-(2-aminoethyl)-1H-imidazol-1-yl]acetyl}azetidin-3-yl)oxy]-4,4-dihydroxy-5-oxa-4-boranuidabicyclo[4.4.0]deca-l(6),7,9-triene-7-carboxylic acid disodium salt] | A (MIC of MEPM decreasing to less than 1/32 in combination with a test compound is indicated by A) | B (decreasing from 1/32 to 1/16 is indicated by B) | 
O=C(O)c1c(OC2CN(C(=O)c3ccc(O)c(O)c3)C2)ccc2c1OB(O)CC2 [Example 34, 7-{[1-(3,4-dihydroxybenzoyl)azetidin-3-yl]oxy}-2-hydroxy-3,4-dihydro-2H-1,2-benzoxaborinine-8-carboxylic acid] | A (MIC of MEPM decreasing to less than 1/32 in combination with a test compound is indicated by A) | B (decreasing from 1/32 to 1/16 is indicated by B) | 
O=C(O)c1c(OC2CN(C(=O)NO)C2)ccc2c1OB(O)CC2 [Example 35, 2-hydroxy-7-{[1-(hydroxycarbamoyl)azetidin-3-yl]oxy}-3,4-dihydro-2H-1,2-benzoxaborinine-8-carboxylic Acid] | A (MIC of MEPM decreasing to less than 1/32 in combination with a test compound is indicated by A) | B (decreasing from 1/32 to 1/16 is indicated by B) | Decrease of MIC of MEPM in combination with a test compound, E. coli ATCC BAA-2340 (KPC) [2]: A (MIC of MEPM decreasing to less than 1/32 in combination with a test compound is indicated by A)
Cl.Cl.NC(C(=O)N1CC(Oc2ccc3c(c2C(=O)O)OB(O)CC3)C1)c1c[nH]cn1 (centres unmarked) [Example 40, 7-({1-[2-amino-2-(1H-imidazol-4-yl)(2H)ethanoyl]azetidin-3-yl}oxy)-2-hydroxy-3,4-dihydro-2H-1,2-benzoxaborinine-8-carboxylic Acid Dihydrochloride] |  |  | MIC of MEPM in combination with a test compound [1, 3]: 0.063 µg/mL; MIC of MEPM in combination with a test compound [1, 4]: 0.063 µg/mL
O=C(O)c1c(OC2CN(C(=O)C[C@@H]3CCCN3)C2)ccc2c1O[B-](O)(O)CC2.O=C(O)c1c(OC2CN(C(=O)C[C@@H]3CCCN3)C2)ccc2c1O[B-](O)(O)CC2.[Na+].[Na+] [Example 127, 4,4-dihydroxy-8-[(1-{[(2S)-pyrrolidin-2-yl]acetyl}azetidin-3-yl)oxy]-5-oxa-4-boranuidabicyclo[4.4.0]deca-l(6),7,9-triene-7-carboxylic acid disodium salt] |  |  | MIC of MEPM in combination with a test compound [1, 3]: ≤ 0.063 µg/mL; MIC of MEPM in combination with a test compound [1, 4]: ≤ 0.063 µg/mL
C[C@@H](O)[C@H]1C(=O)N2C(C(=O)O)=C(S[C@@H]3CN[C@H](C(=O)N(C)C)C3)[C@H](C)[C@H]12 [MEPM, meropenem, reference compound] |  |  | MIC of MEPM alone ([1]; E. coli ATCC BAA-2340 (KPC)): 4 and 8; MIC of MEPM alone [1, 4]: 2 and 1

Reference: US11066425B1, “Oxo-substituted compound” (SUMITOMO DAINIPPON PHARMA CO., LTD., priority 2018, dated 2021)
